Experimental data from article PMC7714403 (JCI Insight, 2020).
“And” between values parts separate entries of the source, which are not always exact repeats. Equal values may be shown once.

Assays:
MST3, MST4, YSK1 = experiment: KiNativ, OCI cells live cell; assay type: cell-based, human; settings: labeling site Activation Loop, peptide LADFGVAGQLTDTQIKR
FES = FES (Homo sapiens, UniProt P07332); experiment: KiNativ, OCI cells live cell; assay type: cell-based; settings: 2 h, labeling site Lys1, peptide […]
CDK6 = CDK6 (Homo sapiens, UniProt Q00534); experiment: KiNativ, OCI cells live cell; assay type: cell-based; settings: 2 h, labeling site Lys2, peptide […]
CCRK = CCRK (Homo sapiens, UniProt Q8IZL9); experiment: KiNativ, OCI cells live cell; assay type: cell-based; settings: 2 h, labeling site Lys2, peptide […]
SMG1 = SMG1 (Homo sapiens, UniProt Q96Q15); experiment: KiNativ, OCI cells live cell; assay type: cell-based; settings: labeling site ATP
IRAK4 = molecular target: T1, IRAK4 (Homo sapiens, UniProt Q9NWZ3); experiment: KiNativ, OCI cells live cell; assay type: cell-based
T1 sequence (Q9NWZ3 1-460): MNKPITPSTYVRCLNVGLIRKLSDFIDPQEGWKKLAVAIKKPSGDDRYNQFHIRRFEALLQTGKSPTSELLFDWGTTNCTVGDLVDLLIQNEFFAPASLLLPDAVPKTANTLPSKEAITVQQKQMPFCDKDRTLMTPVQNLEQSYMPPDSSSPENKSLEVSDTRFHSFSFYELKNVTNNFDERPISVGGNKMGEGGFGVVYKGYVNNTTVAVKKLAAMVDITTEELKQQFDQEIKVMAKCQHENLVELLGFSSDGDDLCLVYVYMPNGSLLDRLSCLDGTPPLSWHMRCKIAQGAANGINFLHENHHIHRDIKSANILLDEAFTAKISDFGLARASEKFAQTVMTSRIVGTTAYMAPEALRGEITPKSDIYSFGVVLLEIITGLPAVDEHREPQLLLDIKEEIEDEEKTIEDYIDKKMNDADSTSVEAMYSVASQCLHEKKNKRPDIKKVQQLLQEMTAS

FMS = FMS (Homo sapiens, UniProt P07333); experiment: KiNativ, OCI cells live cell; assay type: cell-based; settings: 2 h, labeling site ATP Loop, peptide […]
FLT3 = molecular target: T2, FLT3 (Homo sapiens, UniProt P36888); experiment: KdELECT binding assay; settings: FLT3 WT
T2 construct: purchased Eurofins DiscoverX

RSK2 domain1 = molecular target: T3, RSK2 domain1 (Homo sapiens, UniProt P51812); experiment: KiNativ, OCI cells live cell; assay type: cell-based; settings: 2 h
T3 construct: RSK2 domain1

Wnk1, Wnk2 = experiment: KiNativ, OCI cells live cell; assay type: cell-based, human; settings: labeling site ATP Loop, peptide GSFKTVYK
RSK1 domain1 = molecular target: T4, RSK1 domain1 (Homo sapiens, UniProt Q15418); experiment: KiNativ, OCI cells live cell; assay type: cell-based; settings: 2 h
T4 construct: RSK1 domain1

NDR2 = NDR2 (Homo sapiens, UniProt Q9Y2H1); experiment: KiNativ, OCI cells live cell; assay type: cell-based; settings: 2 h
MAP3K5 = MAP3K5 (Homo sapiens, UniProt Q99683); experiment: KiNativ, OCI cells live cell; assay type: cell-based; settings: 2 h, labeling site Lys2, peptide […]
IRAK1 = IRAK1 (Homo sapiens, UniProt P51617); experiment: KiNativ, OCI cells live cell; assay type: cell-based; settings: 2 h, labeling site Lys2, peptide […]
PKR = PKR (Homo sapiens, UniProt P19525); experiment: KiNativ, OCI cells live cell; assay type: cell-based
OCI-AML3 cells = experiment: Apoptosis assay (annexin V); assay type: cell-based, human; settings: 20–50 nM, 72 hours
Method: Apoptosis and CD11b expression assays
At indicated time points, cells were collected and washed with PBS. CD11b expression was measured using anti-CD11b -APC antibody (BioLegend, San Diego, CA). Each sample was suspended in 100uL of FACS buffer (PBS + 4% FBS) with 1uL of antibody, incubated on ice for 15 minutes in the dark and washed once in PBS. DAPI (final concentration 1ug/mL [ThermoFisher Scientific]) was added to each sample as a viability dye. For apoptosis assay, cells were incubated with annexin V-APC (BioLegend) according to manufacturer’s instructions. CD11b expression and apoptosis were measured by BD LSR II flow cytometer. Two-color cytometry was performed, and data were […]
points, cells were collected and washed with 0.1% EDTA PBS (Ricca Chemical Company, Arlington, TX) followed by only PBS. Cells were then fixed on ice with ice-cold 70% ethanol for 30 minutes . Cells were either stored at -20°C for up to 1 month or processed immediately. Cells were spun down at 450 x g for 10 minutes and stained

p70S6K = p70S6K (Homo sapiens, UniProt P23443); experiment: KiNativ, OCI cells live cell; assay type: cell-based; settings: 2 h, labeling site Lys2, peptide […]
PLK1 = PLK1 (Homo sapiens, UniProt P53350); experiment: KiNativ, OCI cells live cell; assay type: cell-based; settings: 2 h
Chain of PLK1 (P53350 whole entry): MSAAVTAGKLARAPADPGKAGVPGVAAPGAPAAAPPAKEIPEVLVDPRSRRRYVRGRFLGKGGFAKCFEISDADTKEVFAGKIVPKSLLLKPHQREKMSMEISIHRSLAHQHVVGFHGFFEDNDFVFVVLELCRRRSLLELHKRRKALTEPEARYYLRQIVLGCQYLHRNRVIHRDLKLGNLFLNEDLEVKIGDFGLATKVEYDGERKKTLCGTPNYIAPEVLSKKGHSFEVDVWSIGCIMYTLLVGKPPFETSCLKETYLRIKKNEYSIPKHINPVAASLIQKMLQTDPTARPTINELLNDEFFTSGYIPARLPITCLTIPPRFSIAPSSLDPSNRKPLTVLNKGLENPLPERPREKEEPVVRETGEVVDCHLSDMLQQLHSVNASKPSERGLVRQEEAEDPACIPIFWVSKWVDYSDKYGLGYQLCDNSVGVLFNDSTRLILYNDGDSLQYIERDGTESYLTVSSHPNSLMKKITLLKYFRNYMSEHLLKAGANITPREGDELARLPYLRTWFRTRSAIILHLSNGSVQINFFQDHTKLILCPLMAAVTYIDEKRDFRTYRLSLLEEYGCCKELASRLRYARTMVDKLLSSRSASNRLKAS

T2 sequence (P36888 27-993): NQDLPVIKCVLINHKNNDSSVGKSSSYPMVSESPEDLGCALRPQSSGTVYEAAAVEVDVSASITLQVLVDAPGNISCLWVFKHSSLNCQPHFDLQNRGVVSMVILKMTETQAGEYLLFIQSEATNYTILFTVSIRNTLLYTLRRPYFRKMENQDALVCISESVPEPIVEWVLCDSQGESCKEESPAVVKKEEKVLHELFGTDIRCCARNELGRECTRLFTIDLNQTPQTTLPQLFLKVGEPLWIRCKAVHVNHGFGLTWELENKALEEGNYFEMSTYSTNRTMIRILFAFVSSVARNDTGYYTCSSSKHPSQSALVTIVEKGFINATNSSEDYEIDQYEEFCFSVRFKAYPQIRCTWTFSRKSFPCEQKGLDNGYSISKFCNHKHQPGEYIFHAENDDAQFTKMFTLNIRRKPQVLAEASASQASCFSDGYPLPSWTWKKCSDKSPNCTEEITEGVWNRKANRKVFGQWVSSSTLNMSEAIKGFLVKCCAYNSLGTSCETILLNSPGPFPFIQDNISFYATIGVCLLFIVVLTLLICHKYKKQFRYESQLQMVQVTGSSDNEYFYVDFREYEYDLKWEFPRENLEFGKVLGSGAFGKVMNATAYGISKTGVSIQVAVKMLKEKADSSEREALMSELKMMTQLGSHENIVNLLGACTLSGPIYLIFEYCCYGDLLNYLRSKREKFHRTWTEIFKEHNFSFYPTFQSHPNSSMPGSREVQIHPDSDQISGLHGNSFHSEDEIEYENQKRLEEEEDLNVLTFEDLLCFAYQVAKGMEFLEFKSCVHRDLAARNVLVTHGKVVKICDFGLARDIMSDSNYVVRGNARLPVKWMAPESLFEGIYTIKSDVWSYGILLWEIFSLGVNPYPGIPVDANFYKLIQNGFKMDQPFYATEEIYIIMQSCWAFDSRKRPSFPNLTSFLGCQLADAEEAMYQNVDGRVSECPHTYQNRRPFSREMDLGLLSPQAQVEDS
T4 sequence (Q15418 whole entry, the tested form may be a part): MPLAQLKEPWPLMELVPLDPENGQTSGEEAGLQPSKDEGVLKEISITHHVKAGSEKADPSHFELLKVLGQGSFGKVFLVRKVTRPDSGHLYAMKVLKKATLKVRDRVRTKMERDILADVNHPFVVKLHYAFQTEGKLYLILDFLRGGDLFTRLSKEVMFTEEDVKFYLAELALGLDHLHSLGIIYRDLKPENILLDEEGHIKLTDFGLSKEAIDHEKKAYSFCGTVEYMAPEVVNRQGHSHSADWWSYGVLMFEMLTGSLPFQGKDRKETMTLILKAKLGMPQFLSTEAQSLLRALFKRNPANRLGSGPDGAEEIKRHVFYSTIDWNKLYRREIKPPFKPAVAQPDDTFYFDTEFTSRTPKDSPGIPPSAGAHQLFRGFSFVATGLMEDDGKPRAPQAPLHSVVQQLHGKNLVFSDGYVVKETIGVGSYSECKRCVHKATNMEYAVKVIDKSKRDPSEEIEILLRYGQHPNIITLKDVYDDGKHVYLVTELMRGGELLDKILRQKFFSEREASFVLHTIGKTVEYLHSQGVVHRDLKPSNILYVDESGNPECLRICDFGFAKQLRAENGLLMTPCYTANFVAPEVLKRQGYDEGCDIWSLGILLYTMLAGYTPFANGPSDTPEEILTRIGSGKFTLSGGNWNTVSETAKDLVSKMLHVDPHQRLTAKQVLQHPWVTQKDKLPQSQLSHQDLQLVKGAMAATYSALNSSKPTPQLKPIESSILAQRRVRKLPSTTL
T3 sequence (P51812 whole entry, the tested form may be a part): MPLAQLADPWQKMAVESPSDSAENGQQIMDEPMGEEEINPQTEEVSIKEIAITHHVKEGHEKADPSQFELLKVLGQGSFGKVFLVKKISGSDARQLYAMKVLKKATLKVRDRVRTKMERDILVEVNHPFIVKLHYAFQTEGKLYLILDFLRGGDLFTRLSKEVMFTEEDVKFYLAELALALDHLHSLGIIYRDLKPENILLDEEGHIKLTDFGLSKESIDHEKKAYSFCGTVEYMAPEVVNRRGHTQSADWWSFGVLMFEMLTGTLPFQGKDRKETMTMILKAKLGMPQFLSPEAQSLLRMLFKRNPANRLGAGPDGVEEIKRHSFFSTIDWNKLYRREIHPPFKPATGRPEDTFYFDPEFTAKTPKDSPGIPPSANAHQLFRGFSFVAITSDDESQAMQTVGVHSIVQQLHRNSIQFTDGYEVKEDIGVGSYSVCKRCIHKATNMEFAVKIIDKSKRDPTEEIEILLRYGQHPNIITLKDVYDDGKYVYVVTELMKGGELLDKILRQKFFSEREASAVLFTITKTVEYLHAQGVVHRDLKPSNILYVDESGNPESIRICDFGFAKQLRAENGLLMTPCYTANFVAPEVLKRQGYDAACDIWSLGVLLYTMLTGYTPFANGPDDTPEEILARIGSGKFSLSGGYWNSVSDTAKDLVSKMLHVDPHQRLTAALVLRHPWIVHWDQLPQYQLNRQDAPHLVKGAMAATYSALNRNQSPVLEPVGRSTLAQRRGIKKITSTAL
Chain of NDR2 (Q9Y2H1 whole entry): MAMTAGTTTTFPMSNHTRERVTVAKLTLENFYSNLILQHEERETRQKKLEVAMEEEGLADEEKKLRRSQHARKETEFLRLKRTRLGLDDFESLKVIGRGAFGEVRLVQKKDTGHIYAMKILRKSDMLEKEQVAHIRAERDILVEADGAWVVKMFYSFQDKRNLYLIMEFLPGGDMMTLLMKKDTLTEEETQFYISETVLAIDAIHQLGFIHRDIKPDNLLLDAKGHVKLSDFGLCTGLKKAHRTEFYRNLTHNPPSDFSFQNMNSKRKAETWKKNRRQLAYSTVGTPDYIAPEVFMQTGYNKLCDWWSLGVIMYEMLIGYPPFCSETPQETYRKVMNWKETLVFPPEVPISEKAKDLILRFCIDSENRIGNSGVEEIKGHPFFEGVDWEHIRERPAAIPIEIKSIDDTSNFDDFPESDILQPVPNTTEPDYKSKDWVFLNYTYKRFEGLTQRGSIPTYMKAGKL
Chain of PKR (P19525 whole entry): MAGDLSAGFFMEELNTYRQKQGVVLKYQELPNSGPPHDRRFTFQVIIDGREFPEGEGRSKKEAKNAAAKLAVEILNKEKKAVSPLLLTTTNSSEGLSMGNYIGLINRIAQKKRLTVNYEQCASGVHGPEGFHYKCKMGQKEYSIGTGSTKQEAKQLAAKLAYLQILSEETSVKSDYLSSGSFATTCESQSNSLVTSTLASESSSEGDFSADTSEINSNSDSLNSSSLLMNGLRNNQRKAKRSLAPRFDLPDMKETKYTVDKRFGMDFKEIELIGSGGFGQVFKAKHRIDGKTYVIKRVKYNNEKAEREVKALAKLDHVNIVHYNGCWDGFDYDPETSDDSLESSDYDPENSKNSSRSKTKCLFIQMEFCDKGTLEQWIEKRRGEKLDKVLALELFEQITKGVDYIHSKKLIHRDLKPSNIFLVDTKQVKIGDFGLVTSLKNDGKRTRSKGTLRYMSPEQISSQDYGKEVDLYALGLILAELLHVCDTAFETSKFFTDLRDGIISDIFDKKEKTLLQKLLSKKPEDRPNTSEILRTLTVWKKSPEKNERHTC
Chain of p70S6K (P23443 whole entry): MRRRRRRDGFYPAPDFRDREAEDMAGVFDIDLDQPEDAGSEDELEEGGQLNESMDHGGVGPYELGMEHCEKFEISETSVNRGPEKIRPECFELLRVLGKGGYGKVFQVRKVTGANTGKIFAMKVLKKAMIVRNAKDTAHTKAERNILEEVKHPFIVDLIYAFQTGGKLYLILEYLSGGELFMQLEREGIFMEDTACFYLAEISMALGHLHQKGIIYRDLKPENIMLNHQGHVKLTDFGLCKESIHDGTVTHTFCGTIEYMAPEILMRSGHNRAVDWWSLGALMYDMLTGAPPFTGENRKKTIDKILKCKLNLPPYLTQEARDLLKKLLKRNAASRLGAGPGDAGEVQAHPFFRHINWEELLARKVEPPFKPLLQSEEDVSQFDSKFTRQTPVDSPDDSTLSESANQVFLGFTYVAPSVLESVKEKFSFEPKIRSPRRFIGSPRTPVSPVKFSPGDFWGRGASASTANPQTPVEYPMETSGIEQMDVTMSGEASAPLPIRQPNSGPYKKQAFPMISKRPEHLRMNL
Chain of CCRK (Q8IZL9 whole entry): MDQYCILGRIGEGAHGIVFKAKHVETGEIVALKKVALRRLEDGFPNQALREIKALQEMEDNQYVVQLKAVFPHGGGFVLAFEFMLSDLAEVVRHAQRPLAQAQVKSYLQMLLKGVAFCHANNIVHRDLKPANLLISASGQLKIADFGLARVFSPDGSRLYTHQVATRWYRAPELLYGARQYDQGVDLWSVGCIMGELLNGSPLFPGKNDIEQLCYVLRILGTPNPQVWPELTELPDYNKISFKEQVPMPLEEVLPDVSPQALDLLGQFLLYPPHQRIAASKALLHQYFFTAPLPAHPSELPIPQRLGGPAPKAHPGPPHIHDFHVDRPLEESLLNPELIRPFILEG

CN1CCN(Cc2ccc(Nc3ncc(Cl)c(Nc4ccccc4S(=O)(=O)N(C)C)n3)cc2)CC1 [TP-0903]
Inhibition (MST3, MST4, YSK1): -57.1%
inhibition at 0.1 µM (FES): 47.3%
inhibition at 0.1 µM (CDK6): 74.1%
inhibition at 0.1 µM (CCRK): 58.1%
Inhibition (SMG1; peptide DTVTIHSVGGTITILPTKTKPK): 12.1%
Inhibition (SMG1; peptide SYPYLFKGLEDLHLDER): -6.4%
Inhibition (IRAK4; labeling site Lys1, peptide GYVNNTTVAVKK): -0.0707%
Inhibition (IRAK4; labeling site Lys2, peptide DIKSANILLDEAFTAK): 8.2%
inhibition at 0.1 µM (FMS): -50%
Kd (FLT3): 0.93 nM and < 5 nM
inhibition at 0.1 µM (RSK2 domain1; labeling site Activation Loop, peptide LTDFGLSKESIDHEKK): 52.4%
inhibition at 0.1 µM (RSK2 domain1; labeling site Lys1, peptide QLYAMKVLK): 48.2%
Inhibition (Wnk1, Wnk2): -19.4%
inhibition at 0.1 µM (RSK1 domain1; labeling site Activation Loop, peptide LTDFGLSKEAIDHEKK): 44.9%
inhibition at 0.1 µM (RSK1 domain1; labeling site Lys1, peptide KVTRPDSGHLYAMKVLK): 42.9%
inhibition at 0.1 µM (NDR2; labeling site Lys1, peptide DTGHIYAMKILR): 21.5%
inhibition at 0.1 µM (NDR2; labeling site Lys2, peptide DIKPDNLLLDAK): -7%
inhibition at 0.1 µM (MAP3K5): -1.8%
inhibition at 0.1 µM (IRAK1): 62.8%
Inhibition (PKR; labeling site Activation Loop, peptide IGDFGLVTSLKNDGKR): -16.3%
Inhibition (PKR; labeling site Lys2, peptide DLKPSNIFLVDTK): -9.9%
Apoptosis (OCI-AML3 cells): significant apoptosis
inhibition at 0.1 µM (p70S6K): 6.3%
inhibition at 0.1 µM (PLK1; labeling site Lys1, peptide CFEISDADTKEVFAGKIVPK): -5%
inhibition at 0.1 µM (PLK1; labeling site Lys2, peptide DLKLGNLFLNEDLEVK): -4.3%
